Experimental data as given in patent US11427567B2, “Imidazolyl pyrimidinylamine compounds as CDK2 inhibitors” (Incyte Corporation, priority 2019, dated 2022).

target: CDK2/Cyclin E1 (Homo sapiens (Human), UniProt P24941); assay: CDK2/Cyclin E1 HTRF enzyme activity assay (Example A); format: biochemical; conditions: 1 mM ATP
Protocol: Assays were conducted in white 384-well polystyrene plates in a final reaction volume of 8 μL. […] HTRF signals were read after 1 hour at room temperature on a PHERAstar FS plate reader (BMG Labtech). Data was analyzed with IDBS XLFit and GraphPad Prism 5.0 software using a three or four parameter dose response curve to determine IC50 for each compound.

IC50	Structure (SMILES)
≤ 50 nM	CS(=O)(=O)N1CCC(Nc2ncc(C(F)(F)F)c(-c3cn(-c4ccc(CN5CC(F)C5)cc4Cl)cn3)n2)CC1 [Example 197, 4-(1-(2-Chloro-4-((3-fluoroazetidin-1-yl)methyl)phenyl)-1H-imidazol-4-yl)-N-(1-(methyl-sulfonyl)piperidin-4-yl)-5-(trifluoro-methyl)pyrimidin-2-amine]
≤ 50 nM	CS(=O)(=O)N1CCC(Nc2ncc(C(F)(F)F)c(-c3cn(-c4ccc(CN5CCOCC5)cc4Cl)cn3)n2)CC1 [Example 210, 4-(1-(2-Chloro-4-(morpholinomethyl)-phenyl)-1H-imidazol-4-yl)-N-(1-(methyl-sulfonyl)piperidin-4-yl)-5-(trifluoro-methyl)pyrimidin-2-amine]
≤ 50 nM	CN1CCN(Cc2cccc(-n3cnc(-c4nc(NC5CCN(S(C)(=O)=O)CC5)ncc4C(F)(F)F)c3)c2Cl)CC1 [Example 78, 4-(1-(2-Chloro-3-((4-methylpiperazin-1-yl)methyl)phenyl)-1H-imidazol-4-yl)-N-(1-(methylsulfonyl)piperidin-4-yl)-5-(trifluoromethyl)pyrimidin-2-amine]
≤ 50 nM	Cc1nc(-c2nc(NC3CCN(S(C)(=O)=O)CC3)ncc2C(F)(F)F)cn1-c1ccc(CN2CCC2)cc1F [Example 281, 4-(1-(4-(Azetidin-1-ylmethyl)-2-fluorophenyl)-2-methyl-1H-imidazol-4-yl)-N-(1-(methylsulfonyl)piperidin-4-yl)-5-(trifluoromethyl)pyrimidin-2-amine]
≤ 50 nM	CN(C)c1nccc(-n2cnc(-c3nc(NC4CCN(S(C)(=O)=O)CC4)ncc3C(F)(F)F)c2)c1Cl [Example 321, 4-(1-(3-Chloro-2-(dimethylamino)pyridin-4-yl)-1H-imidazol-4-yl)-N-(1-(methylsulfonyl)piperidin-4-yl)-5-(trifluoromethyl)pyrimidin-2-amine]
≤ 50 nM	CC(C#N)Oc1ccc(-n2cnc(-c3nc(NC4CCN(S(C)(=O)=O)CC4)ncc3C(F)(F)F)c2)c(C(F)(F)F)n1 (stereo not drawn) [Example 74, 2-((5-(4-(2-((1-(Methylsulfonyl)piperidin-4-yl)amino)-5-(trifluoromethyl)pyrimidin-4-yl)-1H-imidazol-1-yl)-6-(trifluoromethyl)pyridin-2-yl)oxy)propanenitrile]
≤ 50 nM	COc1nccc(-n2cnc(-c3nc(NC4CCN(S(C)(=O)=O)CC4)ncc3C(F)(F)F)c2)c1C#N [Example 291, 2-Methoxy-4-(4-(2-((1-(methylsulfonyl)piperidin-4-yl)amino)-5-(trifluoromethyl)pyrimidin-4-yl)-1H-imidazol-1-yl)nicotinonitrile]
≤ 50 nM	CCNCc1cccc(-n2cnc(-c3nc(NC4CCN(S(C)(=O)=O)CC4)ncc3C(F)(F)F)c2)c1Cl [Example 361, 4-(1-(2-Chloro-3-((ethylamino)methyl)phe-nyl)-1H-imidazol-4-yl)-N-(1-(methylsulfonyl)piperidin-4-yl)-5-(trifluoromethyl)pyrimi-din-2-amine]
≤ 50 nM	CS(=O)(=O)N1CCC(Nc2ncc(C(F)(F)F)c(-c3cn(-c4ccc(CN5CC6CCC5C6)cc4Cl)cn3)n2)CC1 (stereo not drawn) [Example 180, 4-(1-(4-((2-Azabicyclo[2.2.1]heptan-2-yl)methyl)-2-chlorophenyl)-1H-imidazol-4-yl)-N-(1-(methylsulfonyl)piperidin-4-yl)-5-(trifluoromethyl)pyrimidin-2-amine]
≤ 50 nM	Cc1nc(-c2nc(NC3CCN(S(C)(=O)=O)CC3)ncc2C(F)(F)F)cn1-c1ccc(N(C)CCO)cc1F [Example 113, 2-((3-Fluoro-4-(2-methyl-4-(2-((1-(methyl-sulfonyl)piperidin-4-yl)amino)-5-(trifluoromethyl)-pyrimidin-4-yl)-1H-imidazol-1-yl)phenyl)(methyl)-amino)ethan-1-ol]
≤ 50 nM	CS(=O)(=O)N1CCC(Nc2ncc(C(F)(F)F)c(-c3cn(-c4cccc5c4COC5=O)cn3)n2)CC1 [Example 233, 4-(4-(2-((1-(Methylsulfonyl)piperidin-4-yl)amino)-5-(trifluoromethyl)pyrimidin-4-yl)-1H-imidazol-1-yl)isobenzofuran-1(3H)-one]
≤ 50 nM	CNCc1cccc(-n2cnc(-c3nc(NC4CCN(S(C)(=O)=O)CC4)ncc3C(F)(F)F)c2)c1C(F)(F)F [Example 378, 4-(1-(3-((Methylamino)methyl)-2-(trifluoromethyl)phenyl)-1H-imidazol-4-yl)-N-(1-(methylsulfonyl)piperidin-4-yl)-5-(trifluoromethyl)pyrimidin-2-amine]
≤ 50 nM	CS(=O)(=O)N1CCC(Nc2ncc(C(F)(F)F)c(-c3cn(-c4cccc(CNC5CCOCC5)c4Cl)cn3)n2)CC1 [Example 368, 4-(1-(2-Chloro-3-(((tetrahydro-2H-pyran-4-yl)amino)methyl)phenyl)-1H-imidazol-4-yl)-N-(1-(methylsulfonyl)piperidin-4-yl)-5-(trifluoromethyl)pyrimi-din-2-amine]
≤ 50 nM	Cc1nc(CN2CC(C)C2)ccc1-n1cnc(-c2nc(NC3CCN(S(C)(=O)=O)CC3)ncc2C(F)(F)F)c1 [Example 264, 4-(1-(2-Methyl-6-((3-methylazetidin-1-yl)methyl)pyridin-3-yl)-1H-imidazol-4-yl)-N-(1-(methylsulfonyl)piperidin-4-yl)-5-(trifluoromethyl)pyrimidin-2-amine]
≤ 50 nM	CS(=O)(=O)N1CCC(Nc2ncc(C(F)(F)F)c(-c3cn(-c4ccccc4C#N)cn3)n2)CC1 [Example 31, 2-(4-(2-((1-(Methylsulfonyl)piperidin-4-yl)amino)-5-(trifluoromethyl)pyrimidin-4-yl)-1H-imidazol-1-yl)benzonitrile]
≤ 50 nM	CCNCc1ccc(-n2cnc(-c3nc(NC4CCN(S(C)(=O)=O)CC4)ncc3C(F)(F)F)c2)c(Cl)c1 [Example 189, 4-(1-(2-Chloro-4-((ethylamino)methyl)-phenyl)-1H-imidazol-4-yl)-N-(1-(methyl-sulfonyl)piperidin-4-yl)-5-(trifluoro-methyl)pyrimidin-2-amine]
≤ 50 nM	CS(=O)(=O)N1CCC(Nc2ncc(C#N)c(-c3cn(-c4ccc(C#N)cc4Cl)cn3)n2)CC1 [Example 28, 4-(1-(2-Chloro-4-cyanophenyl)-1H-imidazol-4-yl)-2-((1-(methylsulfonyl)piperidin-4-yl)amino)pyrimidine-5-carbonitrile]
≤ 50 nM	CS(=O)(=O)N1CCC(Nc2ncc(C(F)(F)F)c(-c3cn(-c4cccc(CNC5CCOC5)c4Cl)cn3)n2)CC1 (stereo not drawn) [Example 367, 4-(1-(2-Chloro-3-(((tetrahydrofuran-3-yl)amino)methyl)phenyl)-1H-imidazol-4-yl)-N-(1-(methylsulfonyl)piperidin-4-yl)-5-(trifluoromethyl)pyrimi-din-2-amine]
≤ 50 nM	CC1(CO)CCN1Cc1ccc(-n2cnc(-c3nc(NC4CCN(S(C)(=O)=O)CC4)ncc3C(F)(F)F)c2)c(Cl)c1 (stereo not drawn) [Example 201, (1-(3-Chloro-4-(4-(2-((1-(methylsulfonyl)-piperidin-4-yl)amino)-5-(trifluoromethyl)-pyrimidin-4-yl)-1H-imidazol-1-yl)benzyl)-2-methylazetidin-2-yl)methanol]
≤ 50 nM	CN(C)Cc1cccc(-n2cnc(-c3nc(NC4CCN(S(C)(=O)=O)CC4)ncc3C(F)(F)F)c2)c1Cl [Example 77, 4-(1-(2-Chloro-3-((dimethylamino)methyl)phenyl)-1H-imidazol-4-yl)-N-(1-(methylsulfonyl)piperidin-4-yl)-5-(trifluoromethyl)pyrimidin-2-amine]
≤ 50 nM	Cc1cc(CNCC(F)F)ccc1-n1cnc(-c2nc(NC3CCN(S(C)(=O)=O)CC3)ncc2C(F)(F)F)c1 [Example 450, 4-(1-(4-(((2,2-Difluoroethyl)amino)methyl)-2-methylphenyl)-1H-imidazol-4-yl)-N-(1-(methylsulfonyl)piperidin-4-yl)-5-(trifluoromethyl)pyrimidin-2-amine]
≤ 50 nM	CC(C)NCc1cc(F)c(-n2cnc(-c3nc(N[C@@H]4CCN(S(C)(=O)=O)C[C@H]4F)ncc3C(F)(F)F)c2)c(F)c1 [Example 391, 4-(1-(2,6-Difluoro-4-((isopropylamino)methyl)phenyl)-1H-imidazol-4-yl)-N-((3R,4R)-3-fluoro-1-(methylsulfonyl)piperidin-4-yl)-5-(trifluoromethyl)pyrimidin-2-amine]
≤ 50 nM	Cc1nc(-c2nc(N[C@H]3CCN(S(C)(=O)=O)C[C@H]3F)ncc2C(F)(F)F)cn1-c1ccc(CN2CCC(C)(O)CC2)cc1F [Example 446, 1-(3-Fluoro-4-(4-(2-(((3R,4S)-3-fluoro-1-(methylsulfonyl)piperidin-4-yl)amino)-5-(trifluoromethyl)pyrimidin-4-yl)-2-methyl-1H-imidazol-1-yl)benzyl)-4-methylpiperidin-4-ol]
≤ 50 nM	CS(=O)(=O)N1CCC(Nc2ncc(C(F)(F)F)c(-c3cn(-c4ccccc4CO)cn3)n2)CC1 [Example 237, (2-(4-(2-((1-(Methylsulfonyl)piperidin-4-yl)amino)-5-(trifluoromethyl)pyrimidin-4-yl)-1H-imidazol-1-yl)phenyl)methanol]
≤ 50 nM	C[C@@H]1CN(S(C)(=O)=O)CC[C@@H]1Nc1ncc(C(F)(F)F)c(-c2cn(-c3ccc(CO)cc3Cl)cn2)n1 [Example 234, (3-Chloro-4-(4-(2-(((3R,4S)-3-methyl-1-(methylsulfonyl)piperidin-4-yl)amino)-5-(trifluoromethyl)pyrimidin-4-yl)-1H-imidazol-1-yl)phenyl)methanol]
≤ 50 nM	CCCc1ccc(-n2cnc(-c3nc(NC4CCN(S(C)(=O)=O)CC4)ncc3C(F)(F)F)c2)c(C#N)n1 [Example 94, 3-(4-(2-((1-(Methylsulfonyl)piperidin-4-yl)amino)-5-(trifluoromethyl)pyrimidin-4-yl)-1H-imidazol-1-yl)-6-propylpicolinonitrile]

Structure (SMILES)	IC50
CS(=O)(=O)N1CCC(Nc2ncc(C(F)(F)F)c(-c3cn(-c4ccc(CN5C6COCC5C6)cc4Cl)cn3)n2)CC1 [Example 214, 4-(1-(4-((3-Oxa-6-azabicyclo[3.1.1]-heptan-6-yl)methyl)-2-chlorophenyl)-1H-imidazol-4-yl)-N-(1-(methylsulfonyl)-piperidin-4-yl)-5-(trifluoromethyl)-pyrimidin-2-amine]	≤ 50 nM
